In patent publication US20020071842A1, “Soluble CD1 compositions and uses thereof” (priority 2000, published 2002):

Test system: human CD1d-restricted T cell clones
Assay: Flow cytometric staining with lipid treated multimerized CD1d-Fc aggregates
Assay type: cell-based
Conditions: flow cytometry, human CD1d-Fc/Alexa 488 protein A aggregate, 40:1 lipid to fusion protein, compared with DMSO alone
Description: To facilitate binding to CD1 specific T cells for detection by flow cytometry, a highly multimerized form of the CD1d fusion protein was formed using fluorescently labeled protein A molecules. Protein A molecules spontaneously associate in solution at neutral pH with immunoglobulin Fc regions, forming complexes containing four Fc molecules and two protein A molecules (4+2 complexes, reference 2). The human CD1d-Fc fusion protein was incubated with Alexa 488 dye labeled protein A, and the 4+2 complexes purified by size exclusion chromatography on a Pharmacia Superose 6 column using PBS pH 7.2 as a running buffer. The purified 4+2 aggregates were concentrated to 100 μg/ml with ovalbumin as a carrier protein. The CD1d-Fc aggregate was then pre-incubated for 24 to 48 hours at 37° C. with antigenic glycolipids dissolved in DMSO at a 40:1 molar ratio of lipid to fusion protein, or with an equivalent volume of DMSO alone as a negative control. The T cell staining was performed at room temperature or 4° C. for 20 min, at a concentration of 40 μg/ml of the lipid or control treated CD1d-Fc aggregate.
To facilitate binding to CD1 specific T cells for detection by flow cytometry, a highly multimerized form of the CD1d fusion protein is formed using fluorescently labeled protein A molecules. Protein A molecules spontaneously associate in solution at neutral pH with immunoglobulin Fc regions, forming complexes containing four Fc molecules and two protein A molecules (4+2 complexes, Langone, J.J. et al, Molec. and Cell. Biochem, 65(2):159-70 (1985)). The human CD1d-Fc fusion protein was incubated with Alexa 488-dye labeled protein A, and the 4+2 complexes purified by size exclusion chromatography on a Phannacia Superose 6 column using PBS pH 7.2 as a running buffer. The purified 4+2 aggregates are concentrated to 100 μg/ml with ovalbumin as a carrier protein. The CD1d-Fc aggregate is then pre-incubated for 24 to 48 hours at 37° C. with antigenic glycolipids dissolved in DMSO at a 40:1 molar ratio of lipid to fusion protein, or with an equivalent volume of DMSO alone as a negative control. The T cell staining is performed at room temperature or 4° C. for 20 min, at a concentration of 40 μg/ml of the lipid or control treated CD1d-Fc aggregate.
Flow cytometric analysis of a CD1d-restricted T cell clone stained with the multimerized CD1d-Fc fusion protein (abbreviated as “hd(8)-fl”) was performed as follows. Staining with CD1d-Fc treated with lipid antigens dissolved in DMSO was compared with CD1d-Fc treated with DMSO alone as a negative control. The specific lipid antigen used were: aGalCer is α-galactosyl ceramide (KRN7000); aGlcCer is α-glucosyl ceramide; aManCer is α-mannosyl ceramide; bGalCer is β-galactosyl ceramide; Cer is ceramide (acylphytosphingolipid).
Flow cytometric analysis of a series of human T cell clones stained with the multimerized CD1d-Fc fusion protein, treated with α-GalCer or DMSO alone also was performed, including staining of two different CD1d-restricted (“NKT”) T cell clones DN2.B9 and DN1.10B3. Four other T cell clones that are not CD1d-restricted also were stained.

**Q.** For `CCCCCCCCCCCCCCCCCCCCCCCCCC(=O)N[C@@H](CO[C@H]1O[C@H](CO)[C@H](O)[C@H](O)[C@H]1O)[C@H](O)[C@H](O)CCCCCCCCCCCCCC` [α-GalCer, α-galactosylceramide], which “staining of CD1d-restricted T cell clones by lipid treated CD1d-Fc aggregate” value (from here on “staining”) (listed as aGalCer) is on record?
**A.** positive staining

**Q.** For unglycosylated ceramide, which “staining” value is on record?
**A.** did not stain above background levels

**Q.** For β-galactosylceramide [β-GalCer], which “staining” value is on record?
**A.** did not stain above background levels
